Data from ChEMBL document CHEMBL5365431 (J Med Chem, 2023).
The source made the active and inactive calls. No cut-off for these calls is given here.

Assays:
[1] = biological target: Protein mono-ADP-ribosyltransferase PARP15 (Homo sapiens, UniProt Q460N3); assay: Inhibition of PARP15 (unknown origin) using biotinylated NAD+ as substrate by luminescence assay
HCC1937 = assay: Antiproliferative activity against HR-deficient human HCC1937 cells harboring BRCA1 mutant assessed as cell proliferation inhibition incubated for 7 days by SRB assay; format: functional, cell-based
Mus musculus [2] = organism: Mus musculus; details: BALB/c, dose 12.5-25 mg/kg, route po, time 21.0 day
[3] = Antitumor activity against human Olaparib-resistant MDA-MB-436 cells xenografted in BALB/c mouse assessed as tumor growth inhibition by measuring T/C ratio at 25 mg/kg,po QD for 27 days relative to control; format: functional; parameters: scale not given: the % may be the effect or the level left; details: time 27 day
[4] = biological target: Protein mono-ADP-ribosyltransferase PARP3 (Homo sapiens, UniProt Q9Y6F1); assay: Inhibition of PARP3 (unknown origin) using biotinylated NAD+ as substrate by luminescence assay
[5] = biological target: Protein mono-ADP-ribosyltransferase PARP14 (Homo sapiens, UniProt Q460N5); assay: Inhibition of PARP14 (unknown origin) using biotinylated NAD+ as substrate by luminescence assay
Sequence of Protein mono-ADP-ribosyltransferase PARP14 (Q460N5 whole entry): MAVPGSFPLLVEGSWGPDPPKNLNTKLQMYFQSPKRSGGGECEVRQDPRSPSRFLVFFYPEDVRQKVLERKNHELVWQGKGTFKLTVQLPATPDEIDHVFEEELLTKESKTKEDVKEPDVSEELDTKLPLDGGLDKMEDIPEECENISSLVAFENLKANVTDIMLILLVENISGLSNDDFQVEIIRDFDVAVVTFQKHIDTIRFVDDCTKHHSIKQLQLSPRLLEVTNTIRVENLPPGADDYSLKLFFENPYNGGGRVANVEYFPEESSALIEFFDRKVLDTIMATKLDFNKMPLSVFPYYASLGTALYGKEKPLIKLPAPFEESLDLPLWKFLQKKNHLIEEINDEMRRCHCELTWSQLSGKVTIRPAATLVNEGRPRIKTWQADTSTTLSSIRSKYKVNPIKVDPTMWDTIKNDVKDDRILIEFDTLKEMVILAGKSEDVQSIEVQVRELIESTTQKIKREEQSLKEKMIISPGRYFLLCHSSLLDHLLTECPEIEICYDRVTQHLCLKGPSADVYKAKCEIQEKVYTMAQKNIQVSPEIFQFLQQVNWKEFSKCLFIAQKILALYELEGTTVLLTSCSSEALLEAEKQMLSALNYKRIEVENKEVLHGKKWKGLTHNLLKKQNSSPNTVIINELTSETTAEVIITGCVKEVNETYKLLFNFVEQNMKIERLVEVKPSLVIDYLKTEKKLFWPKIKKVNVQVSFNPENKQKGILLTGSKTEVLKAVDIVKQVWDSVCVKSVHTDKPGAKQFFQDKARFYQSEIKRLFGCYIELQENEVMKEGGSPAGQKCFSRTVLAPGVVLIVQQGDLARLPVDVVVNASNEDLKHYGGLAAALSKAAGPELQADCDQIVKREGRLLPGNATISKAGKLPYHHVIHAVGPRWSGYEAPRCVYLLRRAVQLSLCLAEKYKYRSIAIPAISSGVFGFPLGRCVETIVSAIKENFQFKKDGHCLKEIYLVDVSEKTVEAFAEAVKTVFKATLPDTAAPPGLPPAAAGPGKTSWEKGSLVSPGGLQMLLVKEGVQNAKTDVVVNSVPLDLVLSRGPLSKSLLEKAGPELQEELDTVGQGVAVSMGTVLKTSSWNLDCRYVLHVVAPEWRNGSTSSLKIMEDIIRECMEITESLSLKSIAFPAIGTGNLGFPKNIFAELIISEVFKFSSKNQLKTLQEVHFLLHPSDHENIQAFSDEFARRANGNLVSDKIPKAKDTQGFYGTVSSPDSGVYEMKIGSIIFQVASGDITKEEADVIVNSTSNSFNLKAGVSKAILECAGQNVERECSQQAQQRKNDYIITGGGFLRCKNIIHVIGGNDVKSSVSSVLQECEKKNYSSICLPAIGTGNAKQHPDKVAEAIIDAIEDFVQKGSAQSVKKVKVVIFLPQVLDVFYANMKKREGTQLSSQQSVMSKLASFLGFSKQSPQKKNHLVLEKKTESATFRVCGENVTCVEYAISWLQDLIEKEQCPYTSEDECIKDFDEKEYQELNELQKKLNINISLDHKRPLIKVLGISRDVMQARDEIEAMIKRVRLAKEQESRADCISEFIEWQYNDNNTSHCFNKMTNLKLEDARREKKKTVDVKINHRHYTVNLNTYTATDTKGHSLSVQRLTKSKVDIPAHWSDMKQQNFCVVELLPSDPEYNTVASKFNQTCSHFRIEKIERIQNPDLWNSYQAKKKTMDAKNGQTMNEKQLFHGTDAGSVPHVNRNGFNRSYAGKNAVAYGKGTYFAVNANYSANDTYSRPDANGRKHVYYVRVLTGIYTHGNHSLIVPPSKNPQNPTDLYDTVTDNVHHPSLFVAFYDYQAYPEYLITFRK

[6] = Selectivity index, ratio of IC50 for antiproliferative activity against human PARP1 knockout Talazoparib-resistant CAPAN-1 cells to IC50 for antiproliferative activity against human Talazoparib-resistant CAPAN-1 cells; format: functional
U2OS [7] = assay: Inhibition of homologous recombination repair activity in human U2OS cells expressing direct repeat-GFP reporter gene transfected with pCBA-ISceI plasmid at 1 uM incubated for 48 hrs by flow cytometry; format: functional
CAPAN-1 [8] = details: Homo sapiens, dose 10.0 nM, time 4.5 hrs
[9] = Antiproliferative activity against human Olaparib-resistant MDA-MB-436 cells assessed as cell proliferation inhibition incubated for 7 days by CCK-8 assay; format: functional, cell-based
HCT-15 = assay: Antiproliferative activity against HR-deficient human HCT-15 cells harboring BRCA2 mutant assessed as cell proliferation inhibition incubated for 7 days by SRB assay; format: functional, cell-based
CAPAN-1 [10] = details: Homo sapiens, dose 10.0 nM, time 4.5 hrs; remark: listed apart in the source
[11] = Antiproliferative activity against human UWB1289 cells harboring wild type BRCA1 assessed as cell proliferation inhibition incubated for 7 days by SRB assay; format: functional, cell-based
[12] = biological target: Protein mono-ADP-ribosyltransferase PARP11 (Homo sapiens, UniProt Q9NR21); assay: Inhibition of PARP11 (unknown origin) using biotinylated NAD+ as substrate by luminescence assay
Sequence of Protein mono-ADP-ribosyltransferase PARP11 (Q9NR21 whole entry): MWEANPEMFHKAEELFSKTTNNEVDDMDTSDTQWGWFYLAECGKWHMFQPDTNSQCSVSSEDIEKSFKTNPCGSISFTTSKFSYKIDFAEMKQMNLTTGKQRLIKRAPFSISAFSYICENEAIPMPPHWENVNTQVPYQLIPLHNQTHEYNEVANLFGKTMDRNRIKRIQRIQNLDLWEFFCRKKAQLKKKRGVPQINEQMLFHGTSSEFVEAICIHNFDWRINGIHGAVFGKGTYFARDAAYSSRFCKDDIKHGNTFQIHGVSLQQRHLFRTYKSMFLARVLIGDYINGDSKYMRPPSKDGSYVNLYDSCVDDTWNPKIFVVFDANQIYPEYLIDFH

[13] = Selectivity index, ratio of IC50 for antiproliferative activity against human UWB1289 cells harboring wild type BRCA1 to IC50 for antiproliferative activity against HR-deficient human UWB1289 cells harboring BRCA1 mutant; format: functional
[14] = biological target: Protein mono-ADP-ribosyltransferase PARP6 (Homo sapiens, UniProt Q2NL67); assay: Inhibition of PARP6 (unknown origin) using biotinylated NAD+ as substrate by luminescence assay
MDA-MB-436 = assay: Antiproliferative activity against HR-deficient human MDA-MB-436 cells harboring BRCA1 mutant assessed as cell proliferation inhibition incubated for 7 days by SRB assay; format: functional, cell-based
[15] = biological target: Protein mono-ADP-ribosyltransferase PARP10 (Homo sapiens, UniProt Q53GL7); assay: Inhibition of PARP10 (unknown origin) using biotinylated NAD+ as substrate by luminescence assay
[16] = Antiproliferative activity against Chinese hamster V-C8 cells harboring BRCA2 mutant assessed as cell proliferation inhibition incubated for 7 days by SRB assay; format: functional, cell-based; details: Cricetulus griseus
[17] = Antiproliferative activity against human Olaparib-resistant U-251 cells assessed as cell proliferation inhibition incubated for 7 days by SRB assay; format: functional, cell-based
[18] = Half life in Sprague-Dawley rat at 5 mg/kg, iv and measured upto 24 hrs; format: ADME, organism-based; details: in vivo
[19] = Clearance in Sprague-Dawley rat at 5 mg/kg, iv and measured upto 24 hrs; format: ADME, organism-based; details: in vivo
[20] = Antiproliferative activity against HR-deficient human UWB1289 cells harboring BRCA1 mutant assessed as cell proliferation inhibition incubated for 7 days by SRB assay; format: functional, cell-based
U-251 = assay: Antiproliferative activity against human Talazoparib-resistant U-251 cells assessed as cell proliferation inhibition incubated for 7 days by SRB assay; format: functional, cell-based
Mus musculus [21] = organism: Mus musculus; details: BALB/c, dose 12.5-25 mg/kg, route po, time 21.0 day; remark: listed apart in the source
WI-38 = assay: Antiproliferative activity against human WI-38 cells assessed as cell proliferation inhibition incubated for 7 days by SRB assay; format: functional, cell-based
[22] = Selectivity index, ratio of IC50 for antiproliferative activity against Chinese hamster V79 cells harboring wild type BRCA2 to IC50 for antiproliferative activity against Chinese hamster V-C8 cells harboring BRCA2 mutant; format: functional, Cricetulus griseus
U2OS [23] = assay: Inhibition of homologous recombination repair activity in human PARP1 knockout U2OS cells expressing direct repeat-GFP reporter gene transfected with pCBA-ISceI plasmid at 1 uM incubated for 48 hrs by flow cytometry; format: functional
[24] = biological target: Poly [ADP-ribose] polymerase tankyrase-1 (Homo sapiens, UniProt O95271)
[25] = biological target: Poly [ADP-ribose] polymerase 1 (Homo sapiens, UniProt P09874); assay: Inhibition of PARP1 (unknown origin) using histone as substrate by ELISA
Sequence of Poly [ADP-ribose] polymerase 1 (P09874 whole entry): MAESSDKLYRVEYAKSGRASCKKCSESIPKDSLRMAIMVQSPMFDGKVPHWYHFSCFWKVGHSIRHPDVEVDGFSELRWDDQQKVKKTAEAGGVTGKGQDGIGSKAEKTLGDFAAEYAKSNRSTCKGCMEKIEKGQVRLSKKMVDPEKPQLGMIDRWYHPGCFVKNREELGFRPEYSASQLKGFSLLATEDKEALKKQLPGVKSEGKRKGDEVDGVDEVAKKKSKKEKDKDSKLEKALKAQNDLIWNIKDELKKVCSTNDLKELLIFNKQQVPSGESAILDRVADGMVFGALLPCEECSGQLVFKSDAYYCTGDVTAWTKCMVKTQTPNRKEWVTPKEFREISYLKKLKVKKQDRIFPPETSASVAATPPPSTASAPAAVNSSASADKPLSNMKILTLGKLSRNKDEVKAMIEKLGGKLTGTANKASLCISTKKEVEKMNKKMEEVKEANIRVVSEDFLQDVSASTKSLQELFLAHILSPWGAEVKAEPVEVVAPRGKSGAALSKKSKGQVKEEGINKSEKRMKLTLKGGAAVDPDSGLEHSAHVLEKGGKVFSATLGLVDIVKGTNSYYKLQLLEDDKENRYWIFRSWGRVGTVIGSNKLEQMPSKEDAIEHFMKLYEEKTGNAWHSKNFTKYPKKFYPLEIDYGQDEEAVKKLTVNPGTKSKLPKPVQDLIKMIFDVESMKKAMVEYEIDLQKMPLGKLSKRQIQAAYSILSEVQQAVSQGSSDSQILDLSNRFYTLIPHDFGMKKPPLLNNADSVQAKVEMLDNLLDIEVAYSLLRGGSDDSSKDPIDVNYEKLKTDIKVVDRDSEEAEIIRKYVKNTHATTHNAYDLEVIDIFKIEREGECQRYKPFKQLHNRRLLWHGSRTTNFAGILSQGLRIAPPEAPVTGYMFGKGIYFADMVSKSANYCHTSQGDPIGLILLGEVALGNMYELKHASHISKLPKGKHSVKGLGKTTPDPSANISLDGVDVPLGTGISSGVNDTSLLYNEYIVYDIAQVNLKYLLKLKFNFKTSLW

[26] = Toxicity in BALB/c mouse xenografted with human Olaparib-resistant MDA-MB-436 cells assessed as body weight at 12.5 to 25 mg/kg,po QD for 27 days; format: organism-based; details: in vivo, 648 h, dose 12.5-25 mg/kg, time 27 day
[27] = Antiproliferative activity against human Olaparib-resistant CAPAN-1 cells assessed as cell proliferation inhibition incubated for 7 days by SRB assay; format: functional, cell-based
[28] = Stabilization of human His-tagged PARP1-DNA complex assessed as increase in fluorescence signal incubated for 60 mins using NAD+ as substrate by DSB fluorescence polarization assay
[29] = biological target: Poly [ADP-ribose] polymerase tankyrase-2 (Homo sapiens, UniProt Q9H2K2); assay: Inhibition of PARP5B (unknown origin) using biotinylated NAD+ as substrate by luminescence assay
Sequence of Poly [ADP-ribose] polymerase tankyrase-2 (Q9H2K2 whole entry): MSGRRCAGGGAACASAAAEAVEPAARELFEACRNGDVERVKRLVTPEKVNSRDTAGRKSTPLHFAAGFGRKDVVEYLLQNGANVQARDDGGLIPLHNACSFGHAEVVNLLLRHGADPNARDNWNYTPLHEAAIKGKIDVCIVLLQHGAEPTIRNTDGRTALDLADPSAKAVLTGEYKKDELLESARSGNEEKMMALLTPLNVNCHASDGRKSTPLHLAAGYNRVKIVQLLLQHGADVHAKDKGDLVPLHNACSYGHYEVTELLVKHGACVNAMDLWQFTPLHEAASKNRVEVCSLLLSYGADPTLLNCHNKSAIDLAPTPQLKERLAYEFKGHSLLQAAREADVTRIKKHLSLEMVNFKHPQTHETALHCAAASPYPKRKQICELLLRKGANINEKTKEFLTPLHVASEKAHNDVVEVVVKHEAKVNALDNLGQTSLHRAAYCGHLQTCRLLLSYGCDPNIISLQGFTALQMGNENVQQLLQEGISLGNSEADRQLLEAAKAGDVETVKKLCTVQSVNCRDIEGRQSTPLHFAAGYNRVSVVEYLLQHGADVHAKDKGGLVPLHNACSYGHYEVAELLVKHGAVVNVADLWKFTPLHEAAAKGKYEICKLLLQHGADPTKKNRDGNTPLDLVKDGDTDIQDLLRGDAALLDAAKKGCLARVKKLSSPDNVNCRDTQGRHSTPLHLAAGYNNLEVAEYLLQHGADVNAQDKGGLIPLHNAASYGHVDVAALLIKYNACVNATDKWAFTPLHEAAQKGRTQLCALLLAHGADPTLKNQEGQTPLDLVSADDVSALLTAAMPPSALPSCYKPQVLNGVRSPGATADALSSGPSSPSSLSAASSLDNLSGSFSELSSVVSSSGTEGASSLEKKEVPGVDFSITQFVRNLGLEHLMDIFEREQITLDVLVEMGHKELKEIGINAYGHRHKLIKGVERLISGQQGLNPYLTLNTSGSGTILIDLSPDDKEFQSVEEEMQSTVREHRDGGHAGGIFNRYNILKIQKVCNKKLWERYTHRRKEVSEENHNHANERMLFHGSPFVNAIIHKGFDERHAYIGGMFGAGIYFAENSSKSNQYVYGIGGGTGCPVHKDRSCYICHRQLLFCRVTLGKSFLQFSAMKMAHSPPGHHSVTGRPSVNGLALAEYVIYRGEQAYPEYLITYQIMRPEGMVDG

[30] = biological target: Protein mono-ADP-ribosyltransferase PARP4 (Homo sapiens, UniProt Q9UKK3); assay: Inhibition of PARP4 (unknown origin) using biotinylated NAD+ as substrate by luminescence assay
Mus musculus [31] = organism: Mus musculus; details: BALB/c, dose 12.5-25 mg/kg, route po, time 21.0 day; remark: listed apart in the source
[32] = Antitumor activity against human Olaparib-resistant MDA-MB-436 cells xenografted in BALB/c mouse assessed as tumor growth inhibition by measuring T/C ratio at 12.5 mg/kg,po QD for 27 days relative to control; format: functional; parameters: scale not given: the % may be the effect or the level left; details: time 27 day
[33] = biological target: Protein mono-ADP-ribosyltransferase PARP12 (Homo sapiens, UniProt Q9H0J9); assay: Inhibition of PARP12 (unknown origin) using biotinylated NAD+ as substrate by luminescence assay
Sequence of Protein mono-ADP-ribosyltransferase PARP12 (Q9H0J9 whole entry): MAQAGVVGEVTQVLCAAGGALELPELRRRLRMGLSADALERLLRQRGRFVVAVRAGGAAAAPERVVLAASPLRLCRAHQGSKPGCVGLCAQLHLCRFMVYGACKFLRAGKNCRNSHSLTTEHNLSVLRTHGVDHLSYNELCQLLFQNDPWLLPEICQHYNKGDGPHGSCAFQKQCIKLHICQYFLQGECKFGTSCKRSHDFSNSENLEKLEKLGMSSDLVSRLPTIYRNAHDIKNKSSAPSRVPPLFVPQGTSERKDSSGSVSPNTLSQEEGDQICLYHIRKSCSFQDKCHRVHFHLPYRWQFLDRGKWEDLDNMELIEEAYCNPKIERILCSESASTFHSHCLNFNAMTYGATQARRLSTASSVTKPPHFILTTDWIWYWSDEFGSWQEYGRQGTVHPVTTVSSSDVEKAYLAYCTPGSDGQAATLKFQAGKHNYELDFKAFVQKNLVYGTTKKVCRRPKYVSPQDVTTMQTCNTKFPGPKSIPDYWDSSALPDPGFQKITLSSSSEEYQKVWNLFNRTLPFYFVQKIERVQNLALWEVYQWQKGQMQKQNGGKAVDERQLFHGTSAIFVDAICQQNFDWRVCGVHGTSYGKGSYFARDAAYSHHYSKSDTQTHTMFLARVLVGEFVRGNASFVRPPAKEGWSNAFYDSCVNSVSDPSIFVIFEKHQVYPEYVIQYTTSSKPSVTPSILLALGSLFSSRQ

[34] = biological target: Protein mono-ADP-ribosyltransferase TIPARP (Homo sapiens, UniProt Q7Z3E1); assay: Inhibition of PARP7 (unknown origin) using biotinylated NAD+ as substrate by luminescence assay
CAPAN-1 [35] = assay: Antiproliferative activity against human Talazoparib-resistant CAPAN-1 cells assessed as cell proliferation inhibition incubated for 7 days by SRB assay; format: functional, cell-based
CAPAN-1 [36] = assay: Antitumor activity against human Talazoparib-resistant CAPAN-1 cells xenografted in BALB/c mouse assessed as tumor growth inhibition by measuring T/C ratio at 12.5 mg/kg,po QD for 21 days relative to control; format: functional; parameters: scale not given: the % may be the effect or the level left; details: time 21 day
CAPAN-1 [37] = assay: Antitumor activity against human Talazoparib-resistant CAPAN-1 cells xenografted in BALB/c mouse assessed as tumor growth inhibition by measuring T/C ratio at 25 mg/kg,po QD for 21 days relative to control; format: functional; parameters: scale not given: the % may be the effect or the level left; details: time 21 day
[38] = biological target: Poly [ADP-ribose] polymerase 2 (Homo sapiens, UniProt Q9UGN5); assay: Inhibition of PARP2 (unknown origin) using histone as substrate by ELISA
CAPAN-1 [39] = assay: Antiproliferative activity against human CAPAN-1 cells assessed as cell proliferation inhibition incubated for 7 days by SRB assay; format: functional, cell-based
V79 = assay: Antiproliferative activity against Chinese hamster V79 cells harboring wild type BRCA2 assessed as cell proliferation inhibition incubated for 7 days by SRB assay; format: functional, cell-based; details: Cricetulus griseus
IMR-90 = assay: Antiproliferative activity against human IMR-90 cells assessed as cell proliferation inhibition incubated for 7 days by SRB assay; format: functional, cell-based
[40] = Antiproliferative activity against human Talazoparib-resistant MDA-MB-436 cells assessed as cell proliferation inhibition incubated for 7 days by CCK-8 assay; format: functional, cell-based, Talazoparib-resistant MDA-MB-436 cell

IC50 [1]: 51600 nM
IC50 (HCC1937): 4.54 nM
IC50 [4]: 1.1 nM
IC50 [5]: 35900 nM
IC50 (HCT-15): 44.2 nM
IC50 [12]: 2170 nM
IC50 [14]: 9.5 nM
IC50 (MDA-MB-436): 0.52 nM
IC50 [15]: 10.8 nM
half-life [18]: 3.25 h
clearance [19]: 24.5 mL/min/kg
IC50 (U-251): 1.97 nM
IC50 [24]: 3.8 nM
IC50 [25]: < 0.001 nM
EC50 [28]: 5.55 nM
IC50 [29]: 12.4 nM
IC50 [30]: 1 nM
IC50 [33]: 14.1 nM
IC50 [34]: 7.3 nM
IC50 [38]: 0.001 nM
Compound: O=C(c1cc(Cc2n[nH]c(=O)c3ccccc23)ccc1F)N1CCn2c(nnc2-c2ccc(Br)o2)C1
inhibition (Mus musculus [2]): Active
Activity [3]: 15.29%
Ratio IC50 [6]: 19
inhibition (INH) (U2OS [7]): 95%
inhibition (CAPAN-1 [8]): Active
IC50 [9]: 1.97 nM
inhibition (CAPAN-1 [10]): Active
IC50 [11]: 0.34 nM
Ratio IC50 [13]: 17
IC50 [16]: 1.19 nM
IC50 [17]: 1.97 nM
IC50 [20]: 0.02 nM
inhibition (Mus musculus [21]): Active
IC50 (WI-38): 530 nM
Ratio IC50 [22]: 25
inhibition (INH) (U2OS [23]): 50%
Activity [26]: Non-Toxic
IC50 [27]: 0.89 nM
inhibition (Mus musculus [31]): Active
Activity [32]: 36.74%
IC50 (CAPAN-1 [35]): 1.13 nM
Activity (CAPAN-1 [36]): 48.92%
Activity (CAPAN-1 [37]): 13.87%
IC50 (CAPAN-1 [39]): 0.1 nM
IC50 (V79): 29.3 nM
IC50 (IMR-90): 1240 nM
IC50 [40]: 1.97 nM
